Assays:
[1] = test system: RheoSwitch® Therapeutic System (RTS) gene expression; test: In vivo induction of RTS SEAP reporter in electroporated mice; set-up: species or system C57BL6 mice; settings: intraperitoneal injection 26 nmol/mouse; monitored seventeen days
Text: The wild-type D, E, and F domains from spruce budworm Choristoneura fumiferana EcR (“CfEcR-DEF”; SEQ ID NO: 1) were mutated [V107 (gtt)→1107 (att) and Y127 (tac)→E127 (gag)] and fused to a GAL4 DNA binding domain (“Gal4DBD1-147”; SEQ ID NO: 2). Helices 1 through 8 of the EF domains from Homo sapiens RXRPβ (“HsRXRβ-EF”; nucleotides 1-465 of SEQ ID NO: 4) and helices 9 through 12 of the EF domains of Locusta migratoria Ultraspiracle Protein (“LmUSP-EF”; nucleotides 403-630 of SEQ ID NO: 5) were fused to the transactivation domain from VP16 (“VP16AD”; SEQ ID NO: 6), which regulates a reporter gene human secreted alkaline phosphatase (“SEAP”, SEQ ID NO: 12) that was placed under the control of a 6xGAL4 response element (SEQ ID NO: 13) and a transthyretin promoter (SEQ ID NO: 14). Each element of the gene switch was on a separate plasmid. Receptor expression was under the control of a CMV promoter (SEQ ID NO: 15). Induction was evaluated by the amount of reporter protein expressed in the presence of ligand.
SEAP expression in serum of mice was evaluated after electroporation of the gene switch into mouse quadriceps. Mice were anesthetized with 2 μL/g of a mixture of ketamine (100 mg/mL) and xylazine (20 mg/mL). Animals were then shaved, DNA vectors injected into the muscle in a volume of 2×50 μL polyglutamic acid (12 mg/mL water), electrode conductivity gel applied, and an electrode caliber (1 cm×1 cm; model 384) was placed on hind leg. The muscle was electroporated with 200 V/cm, 8 times, for 20 msec/pulse, at 1 sec time intervals. The transverse electrical field direction was reversed after the animals received half of the pulses. Electroporation was performed with an ECM 830 electroporator from BTX Molecular Delivery Systems.
[…] In other experiments the concentration of ligand was decreased to 26 nmol/50 μL of DMSO/mouse. […]
Mouse serum was obtained by centrifugation of blood acquired by retroorbital bleeding with a small glass capillary tube. SEAP quantification was determined using a Clontech Great Escape chemiluminescence kit and by comparison with the Clontech SEAP standard. […]

[2] = test system: murine IL-12 under the control of the RTS; test: In vivo induction of transgene IL-12 from Ad-RTS-mIL-12 transduced B16 tumor cells; set-up: species or system C57BL/6 mice; settings: for IL-12 expression levels after ligand treatment discontinued: ligand discontinued for 3 days; for transgene IL-12 expression in tumor and serum, dose pattern: oral gavage 0, 3, 10, 30, 50 mg/kg daily for 3 days
Procedure: The transgene tested in this example was murine IL-12 under the control of the RTS. Mouse melanoma cells (B16) were transduced with an adenoviral vector Ad-RTS-mIL-12 that carries the murine IL-12 transgene under the control of RTS. These cells were injected subcutaneously (s.c.) into the C57BL/6 mice (histocompatible with B16 cells) and the mice were treated with different doses of the R enantiomer and racemic 2-ethyl-3-methoxy-benzoic acid N′-(1-tert-butyl-butyl)-N′-(3,5-dimethyl-benzoyl)-hydrazide for three days. The control groups included the mice receiving untransduced B16 cells and the higher dose of ligand and another group receiving the transduced B116 cells and no ligand. […] Tumor extracts and serum were prepared and assayed for IL-12 by ELISA.
The remaining mice were used for testing the transgene turn-off when the ligand administration is discontinued for an additional 72 hours.
Materials and Methods: B16 cells were infected with Ad-RTS-mIL-12 (MOI=100) in vitro. After 48 h, 5×10^5 (B16, right flank) cells were injected s.c. into C57 BL/6 mice (10 mice/group). The R enantiomer and racemate ligands were dissolved in Labrasol by heating a 10 mg/mL mixture at 50° C. for 5 minutes. Both ligands were dissolved in Labrasol based on visual inspection. Activating ligands were provided via oral gavage at the following doses (0 mg/kg; 3 mg/kg; 10 mg/kg; 30 mg/kg and 50 mg/kg) daily for 3 days. Additional controls included B16-bearing mice receiving ligand only (50 mg/kg/day for 3 days and untreated tumor-bearing mice). Five mice/group were harvested for isolation of tumor lesions and peripheral blood. Tissue was homogenized in 1 ml total of phosphate-buffered saline. Lysate/serum was cryopreserved at −80° C. The alternate 5 mice/group were allowed to sit for an additional 72 h in the absence of further ligand administration. These latter 5 mice/group were harvested for isolation of tumor lesions and peripheral blood. Tissue was homogenized as above, and cryopreserved and lysate/serum was cryopreserved at −80° C. Specimens were thawed at 37° C. in water bath and analyzed for mIL-12p70 and also mIFN-γ, a corollary IL-12-dependent cytokine important for CTL trafficking into tumors, using specific ELISAs (BD-Pharmingen).

Structure (SMILES)	RTS gene reporter (SEAP) expression in mouse serum [1]	IL-12 expression levels after ligand treatment discontinued [2]	transgene IL-12 expression in tumor and serum, dose pattern [2]	IFN-γ levels in tumor and serum ([2]; mouse, in vivo)
CCCC(N(NC(=O)c1cccc(OC)c1CC)C(=O)c1cc(C)cc(C)c1)C(C)(C)C (racemic) [rac-1, rac-2-ethyl-3-methoxy-benzoic acid N′-(1-tert-butyl-butyl)-N′-(3,5-dimethyl-benzoyl)-hydrazide]	induces modest RTS gene reporter expression	dropped to similar proportions in all the treatment groups	dose-dependent pattern	–
CCC[C@@H](N(NC(=O)c1cccc(OC)c1CC)C(=O)c1cc(C)cc(C)c1)C(C)(C)C [Example 1, (R)-3,5-Dimethyl-benzoic Acid N-(1-tert-butyl-butyl)-N′-(2-ethyl-3-methoxy-benzoyl)-hydrazide]	induces substantial RTS gene reporter expression	dropped to similar proportions in all the treatment groups	dose-dependent pattern	clearly showed enhanced expression

From patent US20200270225A1, “Chiral Diacylhydrazine Ligands for Modulating the Expression of Exogenous Genes via an Ecdysone Receptor Complex” (Intrexon Corporation, priority 2007, published 2020)
